We go through 2 molecules from patent publication US11054425B2, “System and method for identification and characterization of transglutaminase species” (Roche Sequencing Solutions, Inc., priority 2014, dated 2021).

No end group written: not given here. *: point of attachment. Cbz = O=C(OCc1ccccc1)*

Assay [1] deals with KalbTG. Put plainly: GLDH-coupled assay in solution (NADH oxidation). It counts as biochemical, Kutzneria albida. The protocol:
KalbTG activity was obtained by measuring incorporation of a biotinylated amine-donor on the peptide array and rates of NADH oxidation at 340 nm and 37° C. in the presence of amine-donor substrate (500 μM) in the GLDH-coupled assay using 100 μM each of nine of the best-performing array-selected glutamine-containing substrates and of two S. mobaraensis MTG glutamine-containing substrates. […] Testing of the top sequences in Table 1 confirmed YRYRQ (SEQ ID NO: 1) and RYRQR (SEQ ID NO 14) as the top performing 5-mer substrates, with turnover rates of 3.52±0.08 pmol NADH s^−1 and 3.60±0.12 pmol NADH s^−1, respectively.
With reference to Table 2, KalbTG activity was obtained by measuring incorporation of a biotinylated glutamine-donor and rates of NADH oxidation at 340 nm and 37° C. in the presence of glutamine-donor substrate (200 μM) in the GLDH-coupled assay using 100 μM each of i) six of the top-performing array-selected lysine substrates, ii) cadaverine, and iii) preferred MTG lysine substrate ARSKL (SEQ ID NO:30). […] This is a small but significant increase over cadaverine (3.51±0.12 pmol s^−1) or ARSKL (SEQ ID NO:30) (3.87±0.31 pmol s^−1), a peptide previously established as a preferred MTG lysine donor motif on the peptide array. Additional details on the S. mobaraensis MTG substrate peptide ARSKL (SEQ ID NO:30) can be found in U.S. Provisional Patent Application Ser. No. 62/094,495 to Albert et al. filed on Dec. 19, 2014.
(§1) For the GLDH coupled assay, to determine whether the KalbTG peptides selected in the array assay were also preferred substrates in a solution reaction and to quantify cross-reactivity of KalbTG and S. mobaraensis MTG with various substrates, a continuous glutamate dehydrogenase (GLDH)-coupled assay for S. mobaraensis MTG activity (see Oteng-Pabi, et al., 2013. Analytical biochemistry 441(2): 169-173) was applied.
(§2) For glutamine substrate evaluation, the assay was performed in a transparent 96-well microtiter plate in the presence of 500 μM α-ketoglutarate, 500 μM or 1 mM cadaverine as Amine donor substituting for a lysine-containing peptide, 2 U ml^−1 of glutamate dehydrogenase (GLDH), 500 μM NADH and glutamine-containing substrate peptide (Z-[[…] (SEQ ID NO:77)], Z-[[…] (SEQ ID NO:78)], Z-[[…] (SEQ ID NO:75)], Z-[[…] (SEQ ID NO:79)], Z-[[…] (SEQ ID NO:80)], Z-[[…] (SEQ ID NO:81)], Z-[[…] (SEQ ID NO:82)], Z-[[…] (SEQ ID NO:83)], Z-[[…] (SEQ ID NO:84)], Z-[[…] (SEQ ID NO:85)], Z-[[…] (SEQ ID NO:86)], Z-[[…] (SEQ ID NO:76)] or Z-[[…] (SEQ ID NO:87)]) concentrations ranging between 0 and 1 mM in 200 mM MOPS, 1 mM EDTA pH 7.2 (total volume per well 200 μl).
For amine substrate evaluation, assay conditions were the same as for glutamine substrate evaluation with the exception that 100 μM each of amine substrate (Z-[[…] (SEQ ID NO:88)], Z-[[…] (SEQ ID NO:89)], Z-[[…] (SEQ ID NO:90)], Z-[[…] (SEQ ID NO:91)], Z-[[…] (SEQ ID NO:92)], Z-[[…] (SEQ ID NO:93)], Z-[[…] (SEQ ID NO:94)], Z-[[…] (SEQ ID NO:95)] or cadaverine) and 200 μM glutamine donor (Z-[[…] (SEQ ID NO:75)] or Z-[[…] (SEQ ID NO:76)]) were used.
Reactions were started by the addition of 5 μg ml^−1 of S. mobaraensis MTG or KalbTG and the oxidation of NADH was continuously recorded at 340 nm for 60 minutes using a Biotek Synergy H4 microplate reader, temperature controlled at 37° C., with short shaking intervals before each measurement. After a short lag phase where the GLDH was saturated by transglutaminase-mediated release of ammonia, linear rates of absorbance versus time corresponding to transglutaminase turnover were observed and subjected to Michaelis-Menten kinetic analysis. […]

In a further assay the test system is S. mobaraensis MTG. The experiment in a line: GLDH-coupled assay in solution (NADH oxidation). As to conditions: enzyme MTG; glutamine-donor 0 to 1 mM, cadaverine 1 mM, 37° C. It is filed as biochemical, Streptomyces mobaraensis. The protocol:
as §1, §2
Reactions were started by the addition of 5 μg ml^−1 of S. mobaraensis MTG or KalbTG and the oxidation of NADH was continuously recorded at 340 nm for 60 minutes using a Biotek Synergy H4 microplate reader, temperature controlled at 37° C., with short shaking intervals before each measurement. After a short lag phase where the GLDH was saturated by transglutaminase-mediated release of ammonia, linear rates of absorbance versus time corresponding to transglutaminase turnover were observed and subjected to Michaelis-Menten kinetic analysis. Rates of absorbance in millioptical density units per minute (mOD min^−1) were converted into molar rates of NADH turnover (pmol s^−1) using the formula of Equation 1 (previously determined by an NADH standard curve): Turnover rate=|Absorbance rate|*1.111 (Eq. 1)

In assay [2] the test system is KalbTG. Put plainly: 5-mer peptide array, glutamine-substrate screening with biotinylated amine donor. It is filed as biochemical, Kutzneria albida. To be noted: incorporation of biotinylated amine-donor on 5-mer peptide array. The protocol:
To identify potential acyl-donor and amine-donor substrates of the K. albida transglutaminase, high-throughput screening on 5-mer peptide arrays was performed (FIGS. 4A and 4B). An activity of at least 1.65 U/mg for both the SlyD-fused and the mature KalbTG enzymes was confirmed by commercial assay (Zedira MTG-ANiTA-KIT; compared to 4.3 U mg^−1 by the MTG supplied with the kit and a 0.07 U/mg blank value with BSA). The assay used β-casein as a cross-linking substrate and detected deamidation by a glutamate dehydrogenase dependent oxidation of NADPH. Specific recognition motifs were identified by assaying KalbTG with peptide arrays prepared by maskless array synthesis (U.S. Pat. Pub. No 2015/0185216 to Albert et al. filed on 19 Dec. 2014). The efficiency of the transamidation reaction between 1.4 million unique 5-mer peptides and a biotinylated amine donor was quantified on two arrays in parallel and the sequences of the peptides with the highest turnovers were determined (FIG. 4A). The nine best peptides were resynthesized and tested for KalbTG activity in a standalone GLDH-coupled assay. Note that the array signal for the sequence MLAQG (SEQ ID NO:13) is marked not applicable (n. a.) as this sequence was not included on the array. Similarly, measurement of a background signal was only applicable to experiments performed on the array.
For construction of the peptide array, a library of 1,360,732 unique 5-mer peptides was designed by using all combinations of 18 natural amino acids excluding cysteine and methionine, as well as any dimer or a longer repeat of the same amino acid, and any peptide containing a dipeptide selected from HR, RH, HK, KH, RK, KR, HP, and PQ sequences. The library was synthesized in duplicate on the same array by using maskless light-directed peptide array synthesis. Each 5-mer peptide was flanked on both the N-terminus and C-terminus by 3 amino acid-long linkers synthesized by using mixture of glycine and serine having a 3:1 ratio.
To test KalbTG specificity for glutamine-containing substrate, N-(biotinyl)cadaverine was used as a substitute for a lysine substrate to biotinylate glutamine-peptides on a peptide array. KalbTG labeling reaction was performed in 1200 μL 100 mM Tris-HCl pH 8, 1 mM DTT, 50 μM N-(biotinyl)cadaverine, 0.2 ng μl^−1 KalbTG in SecureSeal™ chamber (Grace Bio-Labs) at 37° C. for 45 minutes. After incubation the chamber was removed and the array was washed in 20 mM Tris-HCl, pH7.8, 0.2 M NaCl, 1% SDS for 1 minute followed by a 1 minute wash in 20 mM Tris-HCl. Biotin linked to the array was stained with 0.3 μg ml^−1 Cy5-streptavidin in 10 mM Tris-HCl, pH7.4, 1% alkali-soluble casein, 0.05% TWEEN-20 non-ionic detergent at room temperature for 1 hour. Cy5 fluorescence intensity was measured with a fluorescence scanner at a resolution of 2 μm and a wavelength of 635 nm.

Assay [3] relates to KalbTG. Put plainly: Cy3 labeling of Q-tagged SlyD/FKBP scaffold, SDS-PAGE. It counts as biochemical, Kutzneria albida. To be noted: ten-fold excess KalbTG K-tag-Cy3, substrate to enzyme ratio 72:1, after 15 minutes. An excerpt:
Next, the array and in-solution data were applied to perform site-specific labeling on protein substrates. The molecular chaperone SlyD is a useful scaffold for labeling approaches as epitope-containing loops can be grafted onto the FKBP domain for presentation to binders or enzymes (PCT App. Pub. No. WO 2012/150321 A1 to Andres et al.). A chimeric protein consisting of the Thermus thermophilus FKBP domain and the KalbTG recognition sequence RYRQR (SEQ ID NO:14) was produced. Labeling with a ten-fold excess of KalbTG K-tag-Cy3 and a substrate to enzyme ratio of 72:1 afforded approximately 70% yield of a labeled protein species after 15 minutes (FIG. 6A). This yield remained constant over a time-course of 60 minutes. […] The molecular weight shift from 13 kDa to 19 kDa was observed on the SDS-PAGE gel, corresponding exactly to the incorporation of a single 6 kDa label molecule. […]
If not noted otherwise, labeling reactions were performed for 15 minutes at 37° C. in the presence of 72 μM substrate protein, 720 μM label peptide and 1 μM transglutaminase in 200 mM MOPS pH 7.2 and 1 mM EDTA. […] Samples were taken between incubation steps and analyzed by SDS-PAGE, in-gel fluorescence (BioRad ChemiDoc gel documentation system, Cy3 and Cy5 LED and filter sets). […] The mixture was filtered (0.2 μm spin filter) and analyzed by LC-MS with UV detection at 214 nm and 305 nm.

[4] abbreviates: enzyme KalbTG, glutamine-donor 0 to 1 mM, cadaverine 1 mM, 37° C.

Sequence of KalbTG (as listed by the source): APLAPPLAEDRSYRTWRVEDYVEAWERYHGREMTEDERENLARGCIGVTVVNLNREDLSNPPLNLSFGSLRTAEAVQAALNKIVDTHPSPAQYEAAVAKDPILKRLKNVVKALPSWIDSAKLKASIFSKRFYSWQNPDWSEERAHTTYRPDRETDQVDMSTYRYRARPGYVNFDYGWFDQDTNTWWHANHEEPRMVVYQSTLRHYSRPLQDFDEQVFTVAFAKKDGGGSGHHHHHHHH

One may read the Km as the concentration of substrate that gives half-maximal velocity. Usually Vmax stands for the rate approached at saturating substrate. On to “YRYRQ (Cbz-YRYRQ) [KalbTG glutamine-donor (Q-tag) 5-mer]”, for which the “Reaction rate in solution” value with KalbTG [1] (100 μM glutamine-containing substrate, 500 μM amine-donor substrate, NADH oxidation at 340 nm, 37° C.) was 3.52 ± 0.08 pmol/s. The Michaelis-Menten constant (Km) in the assay on KalbTG [1] (enzyme KalbTG) turned out to be 2000 µM; with KalbTG [1] (setting [4]), 2150 ± 291 µM; in the assay on S. mobaraensis MTG, 644 ± 58.4 µM. The maximum rate (Vmax) in the assay with KalbTG [1] (setting [4]) is recorded as 73.18 ± 7.27 pmol/s; in the assay on S. mobaraensis MTG it was 21.50 ± 1.00 pmol/s. Further, the values for the kcat with KalbTG [1] (setting [4]) and with S. mobaraensis MTG were 1.92 S^−1 and 0.93 S^−1, respectively. The “Array signal (log2)” value with KalbTG [2] is 8.99 log2.

B1: FKBP domain RYRQR: chimeric protein of Thermus thermophilus FKBP domain and KalbTG recognition sequence RYRQR (protein)
chain: MKVGQDKVVTIRYTLQVEGEVLDQGELSYLHGHRNLIPGLEEALEGREEGEAFQAHVPAEKAYGAGSGGGGRYRQRGGGGGSSGKDLDFQVEVVKVREATPEELLHGHAHHHHHHHH
modifications: synthetic peptide sequence - KalbTG acyl-donor sequence grafted onto the FKBP domain of SlyD; FKBP_domain; acyl-donor_tag; 8xHis_tag
As for B1, the “yield of labeled protein species / incorporation of label” value in the assay on KalbTG [3] is recorded as “approximately 70%”.
